Calls of active or inactive are those of the source. The calls are words filed in the database; no cut-off is given here.
Experiments:
Rattus norvegicus [1] = experiment: (§1) Reversal of amyloid beta (1 to 42 residues) induced cognitive impairment in female Wistar rat assessed as reduction in amyloid beta level in brain hippocampus at 20 mg/kg, po pretreated with amyloid beta for 7 days followed by compound administration and measured after 5 days by immunohistochemistry analysis; assay type: functional, organism-based; conditions: time 5.0 day
Drosophila melanogaster [2] = experiment: Reversal of ey-GAL4 driven UAS-amyloid beta induced cellular toxicity in Drosophila melanogaster Oregon R-positive model assessed as increase in rescued eye phenotype at 5 uM by trinocular stereo-zoom microscope relative to control; assay type: functional
Drosophila melanogaster [3] = experiment: Reversal of ey-GAL4 driven UAS-amyloid beta induced cellular toxicity in Drosophila melanogaster Oregon R-positive model assessed as increase in rescued eye phenotype at 15 uM by trinocular stereo-zoom microscope relative to control; assay type: functional
Rattus norvegicus [4] = experiment: (§2) Reversal of amyloid beta (1 to 42 residues) induced cognitive impairment in female Wistar rat assessed as increase in neuronal density in brain at 20 mg/kg, po pretreated with amyloid beta for 7 days followed by compound administration and measured after 5 days by Nissls staining based light microscopic analysis; assay type: functional, organism-based; conditions: time 5.0 day
Cholinesterase = Cholinesterase (Homo sapiens, UniProt P06276); experiment: Inhibition of human serum BChE using butyrylthiocholine iodide as substrate preincubated for 30 mins followed by substrate addition and measured after 30 mins by DTNB based Ellman's method
[5] = Acute toxicity in female Wistar rat assessed as histopathological changes in kidneys at 100 to 500 mg/kg, po measured after 14 days; assay type: organism-based; conditions: in vivo, 336 h, dose 100-500 mg/kg, time 14 day
Acetylcholinesterase [6] = molecular target: T1, Acetylcholinesterase (Homo sapiens, UniProt P22303); experiment: Non-competitive inhibition of human AChE using varying concentrations of acetylthiocholine iodide as substrate assessed as reduction in Vmax with constant Km at 0.03 to 0.3 uM by Lineweaver-Burk double reciprocal plot analysis; conditions: dose 0.03-0.3 µM
Acetylcholinesterase [7] = molecular target: T1, Acetylcholinesterase; experiment: Inhibition of human erythrocyte AChE using acetylthiocholine iodide as substrate preincubated for 30 mins followed by substrate addition and measured after 30 mins by DTNB based Ellman's method
[8] = Acute toxicity in female Wistar rat assessed as histopathological changes in heart at 100 to 500 mg/kg, po measured after 14 days; assay type: organism-based; conditions: in vivo, 336 h, dose 100-500 mg/kg, time 14 day
[9] = Tmax in male Wistar rat at 20 mg/kg, po measured upto 32 hrs by high-performance liquid chromatography; assay type: ADME, organism-based; conditions: in vivo
[10] = Acute toxicity in female Wistar rat assessed as effect on hepatic functional parameters at 100 to 500 mg/kg, po measured after 14 days; assay type: organism-based; conditions: in vivo, 336 h, dose 100-500 mg/kg, time 14 day
[11] = Acute toxicity in female Wistar rat assessed as histopathological changes in brain at 100 to 500 mg/kg, po measured after 14 days; assay type: organism-based; conditions: in vivo, 336 h, dose 100-500 mg/kg, time 14 day
[12] = Drug concentration in male Wistar rat brain homogenate at 20 mg/kg, po measured after 4 days; assay type: ADME, organism-based; conditions: time 4 day, read-out: Ct
Acetylcholinesterase [13] = molecular target: T1, Acetylcholinesterase; experiment: Inhibition of human AChE using acetylthiocholine iodide as substrate assessed as reduction in enzyme activity at 10 to 100 times IC50 incubated for 30 mins
Rattus norvegicus [14] = experiment: Reversal of amyloid beta (1 to 42 residues) induced cognitive impairment in female Wistar rat assessed as reduction in escape latency time at 20 mg/kg, po pretreated with amyloid beta for 7 days followed by compound administration and measured after 5 days by Morris water maze test; assay type: functional, organism-based; conditions: time 5.0 day
Drosophila melanogaster [15] = experiment: Reversal of ey-GAL4 driven UAS-amyloid beta induced cellular toxicity in Drosophila melanogaster Oregon R-positive model assessed as increase in cell viability in gut at 10 uM by MTT assay relative to control; assay type: functional
[16] = Toxicity in Drosophila melanogaster Oregon R-positive assessed as reduction in eclosed flies at pupal stage at 100 uM measured until 15 days relative to control; set-up: scale not given: the % may be the effect or the level left; conditions: 360 h, time 15 day
[17] = molecular target: Amyloid-beta precursor protein (Homo sapiens) (UniProt P05067); experiment: Inhibition of amyloid beta (1 to 42 residues) (unknown origin) aggregation assessed as reduction in fibrils measured after 3 days by AFM analysis; conditions: time 3.0 day
Rattus norvegicus [18] = experiment: as §2, with “arrangements” for “density”; assay type: functional, organism-based; conditions: time 5.0 day
Acetylcholinesterase [19] = molecular target: T1, Acetylcholinesterase; experiment: Non-competitive inhibition of human AChE using acetylthiocholine iodide as substrate assessed as inhibition constant at 0.03 to 0.3 uM by Dixon plot analysis
Drosophila melanogaster [20] = experiment: Reversal of ey-GAL4 driven UAS-amyloid beta induced cellular toxicity in Drosophila melanogaster Oregon R-positive model assessed as increase in cell viability in gut at 5 uM by MTT assay relative to control; assay type: functional
[21] = Acute toxicity in female Wistar rat assessed as effect on renal functional parameters at 100 to 500 mg/kg, po measured after 14 days; assay type: organism-based; conditions: in vivo, 336 h, dose 100-500 mg/kg, time 14 day
[22] = molecular target: Amyloid-beta precursor protein (Homo sapiens) (UniProt P05067); experiment: Inhibition of amyloid beta (1 to 42 residues) (unknown origin) aggregation assessed as disaggregation by measuring reduction in fluorescence intensity measured after 3 days by confocal microscopic analysis; conditions: time 3.0 day
[23] = Toxicity in Drosophila melanogaster Oregon R-positive assessed as reduction in cell viability upto 50 uM measured until 15 days; conditions: 360 h, time 15 day
[24] = Neurotoxicity against retinoic acid/BDNF differentiated human SH-SY5Y cells assessed as reduction in cell viability at 80 uM incubated for 24 hrs by MTT assay relative to control; assay type: toxicity, cell-based
Drosophila melanogaster [25] = experiment: Reversal of ey-GAL4 driven UAS-amyloid beta induced cellular toxicity in Drosophila melanogaster Oregon R-positive model assessed as increase in rescued eye phenotype at 10 uM by trinocular stereo-zoom microscope relative to control; assay type: functional
Drosophila melanogaster [26] = experiment: Reversal of ey-GAL4 driven UAS-amyloid beta induced cellular toxicity in Drosophila melanogaster Oregon R-positive model assessed as increase in cell viability in gut at 50 uM by MTT assay relative to control; assay type: functional
[27] = Acute toxicity in female Wistar rat assessed as weight loss at 100 to 500 mg/kg, po measured upto 5 days; assay type: organism-based; conditions: in vivo, 120 h, dose 100-500 mg/kg, time < 5 day
[28] = molecular target: Amyloid-beta precursor protein (Homo sapiens) (UniProt P05067); experiment: Inhibition of amyloid beta (1 to 42 residues) (unknown origin) aggregation assessed as reduction in massive oligomers measured after 3 days by AFM analysis; conditions: time 3.0 day
Acetylcholinesterase [29] = molecular target: T1, Acetylcholinesterase; experiment: Inhibition of human AChE using acetylthiocholine iodide as substrate assessed as reversal of enzyme activity by measuring remaining activity at 10 to 100 times IC50 incubated for 30 mins followed by dilution to 0.1 to 1 times IC50 with substrate
[30] = molecular target: Amyloid-beta precursor protein (Homo sapiens) (UniProt P05067); experiment: Inhibition of human AChE induced amyloid beta (1 to 42 residues) (unknown origin) aggregation assessed as reduction in NFI measured after 48 hrs by thioflavin T based fluorescence analysis; conditions: dose 5-20 µM
Rattus norvegicus [31] = experiment: Reversal of amyloid beta (1 to 42 residues) induced cognitive impairment in female Wistar rat assessed as increase in total platform crossing at 20 mg/kg, po pretreated with amyloid beta for 7 days followed by compound administration and measured after 5 days by Morris water maze test; assay type: functional, organism-based; conditions: time 5.0 day
Rattus norvegicus [32] = experiment: as §1, with “in BACE-1” for “in amyloid beta”; assay type: functional, organism-based; conditions: time 5.0 day
[33] = molecular target: Amyloid-beta precursor protein (Homo sapiens) (UniProt P05067); experiment: Inhibition of self induced amyloid beta (1 to 42 residues) (unknown origin) aggregation assessed as reduction in NFI measured after 48 hrs by thioflavin T based fluorescence analysis; conditions: dose 5-20 µM
in vitro = conditions: PAMPA

Sequence of Amyloid-beta precursor protein (Homo sapiens) (P05067 whole entry, the tested form may be a part): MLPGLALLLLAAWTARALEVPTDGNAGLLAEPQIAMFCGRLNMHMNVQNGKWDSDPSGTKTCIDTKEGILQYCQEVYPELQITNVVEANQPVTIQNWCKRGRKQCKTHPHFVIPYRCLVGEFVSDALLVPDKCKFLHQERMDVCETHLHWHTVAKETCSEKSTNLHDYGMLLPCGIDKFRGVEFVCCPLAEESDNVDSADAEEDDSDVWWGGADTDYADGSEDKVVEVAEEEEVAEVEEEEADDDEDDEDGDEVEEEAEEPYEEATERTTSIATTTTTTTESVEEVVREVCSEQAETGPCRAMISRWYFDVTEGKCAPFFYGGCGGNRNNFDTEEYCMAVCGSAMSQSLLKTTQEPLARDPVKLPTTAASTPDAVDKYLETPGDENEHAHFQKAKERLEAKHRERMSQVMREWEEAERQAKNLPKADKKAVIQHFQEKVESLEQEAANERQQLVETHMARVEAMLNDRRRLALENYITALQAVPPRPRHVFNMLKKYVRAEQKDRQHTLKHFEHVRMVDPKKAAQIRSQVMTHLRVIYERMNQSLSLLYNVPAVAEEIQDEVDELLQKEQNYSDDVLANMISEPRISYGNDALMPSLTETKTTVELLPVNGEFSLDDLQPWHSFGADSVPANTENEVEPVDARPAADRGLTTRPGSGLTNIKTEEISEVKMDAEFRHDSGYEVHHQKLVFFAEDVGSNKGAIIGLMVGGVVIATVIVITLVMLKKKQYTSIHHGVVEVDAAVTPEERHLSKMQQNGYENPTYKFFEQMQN
T1 sequence (P22303 whole entry): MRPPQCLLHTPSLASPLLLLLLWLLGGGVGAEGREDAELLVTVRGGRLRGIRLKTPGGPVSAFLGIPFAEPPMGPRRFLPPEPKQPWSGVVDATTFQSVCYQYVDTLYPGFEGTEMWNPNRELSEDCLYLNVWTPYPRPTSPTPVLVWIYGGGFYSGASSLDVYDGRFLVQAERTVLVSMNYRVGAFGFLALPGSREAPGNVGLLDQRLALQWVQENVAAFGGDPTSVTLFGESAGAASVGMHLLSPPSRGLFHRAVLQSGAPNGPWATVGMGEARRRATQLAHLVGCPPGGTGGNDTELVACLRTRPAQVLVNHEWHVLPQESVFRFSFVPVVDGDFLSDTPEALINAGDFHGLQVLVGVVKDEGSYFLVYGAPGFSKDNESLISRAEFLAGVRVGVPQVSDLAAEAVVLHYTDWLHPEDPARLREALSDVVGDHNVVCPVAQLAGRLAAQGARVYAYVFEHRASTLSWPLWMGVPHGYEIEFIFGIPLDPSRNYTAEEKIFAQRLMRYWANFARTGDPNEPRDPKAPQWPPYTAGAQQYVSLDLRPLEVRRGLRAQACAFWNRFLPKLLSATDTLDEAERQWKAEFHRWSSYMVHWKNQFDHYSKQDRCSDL
Sequence of Cholinesterase (P06276 whole entry): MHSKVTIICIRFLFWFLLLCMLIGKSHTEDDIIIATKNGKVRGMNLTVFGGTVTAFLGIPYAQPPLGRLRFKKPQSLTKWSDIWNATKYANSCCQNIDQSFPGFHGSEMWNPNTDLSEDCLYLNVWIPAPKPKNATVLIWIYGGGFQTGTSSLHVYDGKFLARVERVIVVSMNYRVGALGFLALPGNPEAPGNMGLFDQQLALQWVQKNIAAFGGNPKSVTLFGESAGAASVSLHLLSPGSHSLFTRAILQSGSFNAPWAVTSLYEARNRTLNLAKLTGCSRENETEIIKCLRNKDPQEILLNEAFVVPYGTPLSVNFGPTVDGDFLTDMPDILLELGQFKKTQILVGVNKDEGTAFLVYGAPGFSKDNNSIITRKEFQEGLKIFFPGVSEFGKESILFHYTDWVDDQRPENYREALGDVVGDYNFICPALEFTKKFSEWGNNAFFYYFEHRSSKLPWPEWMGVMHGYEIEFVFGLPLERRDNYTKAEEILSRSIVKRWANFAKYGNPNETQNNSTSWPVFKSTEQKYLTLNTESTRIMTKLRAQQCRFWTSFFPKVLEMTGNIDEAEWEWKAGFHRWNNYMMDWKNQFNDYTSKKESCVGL

Structure (SMILES): COc1cc2ncnc(N3CCN(Cc4ccccc4)CC3)c2cc1OC
- Activity (Rattus norvegicus [1]): Active
- Activity (Drosophila melanogaster [2]): 27%
- Activity (Drosophila melanogaster [3]): 57%
- Activity (Rattus norvegicus [4]): Active
- IC50 (Cholinesterase): > 10000 nM
- Activity [5]: Non-Toxic
- Activity (Acetylcholinesterase [6]): Active
- IC50 (Acetylcholinesterase [7]): 283 nM
- Activity [8]: Non-Toxic
- Tmax [9]: 3 h
- Activity [10]: Non-Toxic
- Activity [11]: Non-Toxic
- concentration at 96 h [12]: 977 ng/mL
- inhibition (Acetylcholinesterase [13]): Active
- Activity (Rattus norvegicus [14]): Active
- Activity (Drosophila melanogaster [15]): 62%
- Activity [16]: 65%
- inhibition [17]: Active
- Activity (Rattus norvegicus [18]): Active
- Ki (Acetylcholinesterase [19]): 246 nM
- Activity (Drosophila melanogaster [20]): 82%
- Activity [21]: Non-Toxic
- Activity [22]: Active
- Activity [23]: Non-Toxic
- Activity [24]: 26%
- Activity (Drosophila melanogaster [25]): 36.6%
- Activity (Drosophila melanogaster [26]): 75%
- Activity [27]: Toxic
- inhibition [28]: Active
- Activity (Acetylcholinesterase [29]): > 60%
- inhibition [30]: Dose-Dependent Effect
- Activity (Rattus norvegicus [31]): Active
- Activity (Rattus norvegicus [32]): Active
- inhibition [33]: Dose-Dependent Effect
- Papp at 18 h, 25 ug/ml (in vitro): 6.03 ×10⁻⁶ cm/s
